Here are results for 26 compounds from patent US6875761B2 (Eisai Co., Ltd., priority 1997, dated 2005).

The structures appear in SMILES notation. Where a name gives a salt, the structure may show the parent alone.

The target of assay [1] is T1, serotonin 1A receptor (Rattus norvegicus, UniProt P19327).
T1 construct: To the receptor fraction of the hippocampus were added a test compound and 0.5 nM of [^3H]; 8-hydroxy-dipropylaminotetralin; from tissue; host or cells: rat hippocampus membrane fraction
T1 sequence (P19327 1-422): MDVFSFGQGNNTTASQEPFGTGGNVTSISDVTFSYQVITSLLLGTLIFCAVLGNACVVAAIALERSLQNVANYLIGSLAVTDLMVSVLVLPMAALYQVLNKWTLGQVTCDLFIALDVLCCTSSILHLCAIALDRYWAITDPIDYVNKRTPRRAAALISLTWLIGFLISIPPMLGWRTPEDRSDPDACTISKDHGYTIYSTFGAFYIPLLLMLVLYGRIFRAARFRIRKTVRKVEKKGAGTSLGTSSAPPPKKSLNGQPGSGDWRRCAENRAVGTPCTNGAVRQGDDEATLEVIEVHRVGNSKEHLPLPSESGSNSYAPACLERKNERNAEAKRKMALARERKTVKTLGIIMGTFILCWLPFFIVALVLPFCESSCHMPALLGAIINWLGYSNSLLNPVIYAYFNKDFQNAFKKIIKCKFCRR
The assay can be described thus: Binding test on [3H] 8-hydroxy-dipropylaminotetralin, hippocampus receptor fraction. Also on record: species or system SD rats. The conditions noted are these: rat hippocampus receptor fraction, 0.5 nM [3H] 8-OH-DPAT, room temperature 30 min; read-out: 5HT1.

Assay [2] deals with T2, serotonin 2 receptor (Rattus norvegicus, UniProt P14842).
T2 construct: To the receptor fraction of the cerebral cortex were added a test compound and 0.3 nM of [^3H] ketanserin; from tissue; host or cells: rat cerebral cortex membrane fraction
The assay can be described thus: Binding test on [3H] ketanserin, cerebral cortex receptor fraction. Also on record: species or system SD rats. The conditions noted are these: 0.3 nM [3H] ketanserin, 37° C. 15 min, read-out: 5HT2.
Description: Methysergide maleate was dissolved in distilled water before using.
Use was made of SD rats aged 6 to 8 weeks.
The rats were sacrificed by dcapitation to extirpate the cerebra.
Each mixture was homogenized by using a Teflon glass homogenizer and centrifuged as 1,000× g for 10 min. The supernatant thus obtained was further centrifuged at 20,000× g for 20 min. […] After centrifuging at 20,000× g for 20 min, the obtained precipitate was further suspended and centrifuged twice each in the same manner. […] This receptor fraction was stored at −80° C. until using.
To the receptor fraction of the cerebral cortex were added a test compound and 0.3 nM of [^3H] ketanserin and the resultant mixture was incubated at 37° C. for 15 min. Next, it was filtered through a glass filter with the use of a cell harvester. After washing the glass filter with 50 mM Tris hydrochloride (pH 7.4), the radioactivity of the receptor was measured with a liquid scintillation counter. The binding detected in the presence of 1 μM of methysergide was referred to as the nonspecific binding.
IC50 was calculated by the probit method, while Ki was determined in accordance with the following formula: Ki=IC50(1+c/Kd) wherein c represents the concentration of the radioisotope-labeled compound, and Kd represents the dissociation constant of the radioisotope-labeled compound with respect to the receptor determined by Scatchard's analysis.

T2 sequence (P14842 whole entry): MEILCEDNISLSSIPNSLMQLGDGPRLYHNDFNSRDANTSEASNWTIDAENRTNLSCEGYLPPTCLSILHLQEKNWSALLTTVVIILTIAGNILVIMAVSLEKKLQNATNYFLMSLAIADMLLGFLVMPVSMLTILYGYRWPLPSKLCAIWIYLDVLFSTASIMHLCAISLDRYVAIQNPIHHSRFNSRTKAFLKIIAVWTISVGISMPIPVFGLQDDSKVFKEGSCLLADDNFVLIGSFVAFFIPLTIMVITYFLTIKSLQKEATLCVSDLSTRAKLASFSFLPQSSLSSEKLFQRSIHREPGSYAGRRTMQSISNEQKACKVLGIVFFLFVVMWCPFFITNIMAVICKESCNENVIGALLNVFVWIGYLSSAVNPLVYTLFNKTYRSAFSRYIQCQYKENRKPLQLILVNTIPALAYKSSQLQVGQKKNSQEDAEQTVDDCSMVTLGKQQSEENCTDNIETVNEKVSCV

For the compound `CCN1CCN(c2nc(-c3ccc(N4CCC5(CC4)OCCO5)cc3)cc3ccccc23)CC1` [Example 96, 3-[4-(4,4-Ethylenedioxypiperidin-1-yl)phenyl]-1-(4-ethylpiperazin-1-yl)isoquinoline], the figures for the Ki in assay [1] and in assay [2] were 138 nM and 0.1 nM, respectively.

Take `CCN1CCN(c2nc(-c3ccc(N4CCC(O)CC4)cc3)cc3ccccc23)CC1` [Example 97, 1-(4-Ethylpiperazin-1-yl)-3-[4-(4-hydroxypiperidin-1-yl)phenyl]isoquinoline Trihydrochloride]: the Ki in assay [1] came to 34.7 nM; in assay [2] it was 13.3 nM.

For the compound `CCN1CCN(c2nc(-c3ccc(N4CCC(OC)CC4)cc3)cc3ccccc23)CC1` [Example 98, 1-(4-Ethylpiperazin-1-yl)-3-[4-(4-methoxypiperidin-1-yl)phenyl]isoquinoline Trihydrochloride], the Ki in assay [1] was found to be 61.6 nM; in assay [2], 2.7 nM.

For `CCN1CCN(c2nc(-c3ccc(N4CCN(C(C)=O)CC4)nc3)cc3ccccc23)CC1` [Example 99, 3-[2-(4-Acetylpiperazin-1-yl)pyridin-5-yl]-1-(4-ethylpiperazin-1-yl)isoquinoline Trihydrochloride], the Ki in assay [1] amounted to 3.5 nM; in assay [2], 6.2 nM.

Take `CCN1CCN(c2nc(-c3ccc(N4CCN(C(C)=O)CC4)cc3)cc3ccccc23)CC1` [Example 100, 3-[4-(4-Acetylpiperazin-1-yl)phenyl]-1-(4-ethylpiperazin-1-yl)isoquinoline Trihydrochloride]: the Ki in assay [1] was 12.7 nM; in assay [2] it was 5.6 nM.

With `CCN1CCN(c2nc(C(C)c3ccc(OC)cc3)cc3ccccc23)CC1` (stereo not drawn) [Example 102, 3-[α-Methyl-(4-methoxybenzyl)]-1-(4-ethylpiperazin-1-yl)isoquinoline Oxalate], the Ki in assay [1] worked out at 129 nM; in assay [2], 132 nM.

With `CCN1CCN(c2nc(C(O)c3ccc(OC)cc3)cc3ccccc23)CC1` (stereo not drawn) [Example 104, 3-[α-Hydroxy-(4-methoxybenzyl)]-1-(4-ethylpiperazin-1-yl)isoquinoline Oxalate], the Ki was 109 nM in assay [1] and 101 nM in assay [2].

In the case of `CCN1CCN(c2nc(CCc3ccc(OC)cc3)cc3ccccc23)CC1` [Example 106, 1-(1-Ethylpiperazin-4-yl)-3-(4-methoxyphenethyl)isoquinoline], the Ki in assay [1] was determined as 70 nM; in assay [2] it was 30.6 nM.

As for `CCN1CCN(c2nc(CCc3cccc(OCCO)c3)cc3ccccc23)CC1` [Example 108, 1-(1-Ethylpiperazin-4-yl)-3-[3-(2-hydroxyethoxy)phenethyl]isoquinoline], the results for the Ki in assay [1] and in assay [2] were 157 nM and 33.8 nM, respectively.

In the case of `CCN1CCN(c2nc(CCCc3ccccc3OCCO)cc3ccccc23)CC1` [Example 110, 1-(1-Ethylpiperazin-4-yl)-3-[3-[2-(2-hydroxyethoxy)phenyl]propyl]isoquinoline], the results for the Ki in assay [1] and in assay [2] were 58.6 nM and 109 nM, respectively.

For the compound `CCN1CCN(c2nc(C(=O)c3ccccc3OC)cc3ccccc23)CC1` [Example 111, 3-(2-Methoxyphenylcarbonyl)-1-(4-ethylpiperazin-1-yl)isoquinoline Oxalate], the results for the Ki in assay [1] and in assay [2] were 10.3 nM and 89.9 nM, respectively.

With `CCN1CCN(c2nc(C3CCc4ccc(OC)cc43)cc3ccccc23)CC1` (stereo not shown) [Example 114, 3-(6-Methoxyindan-1-yl)-1-(4-ethylpiperazin-1-yl)isoquinoline Oxalate], the Ki in assay [1] came out at 167 nM; in assay [2] it was 49.9 nM.

`CCN1CCN(c2nc(-c3ccc4c(c3)CC(CO)CO4)cc3ccccc23)CC1` (stereo not shown) [Example 122, 3-(3-Hydroxymethylchroman-6-yl)-1-(4-Ethylpiperazin-1-yl)Isoquinoline Hydrochloride]: the Ki in assay [1] stood at 40.1 nM; in assay [2], 19.9 nM.

For `CCN1CCN(c2nc(-c3ccc(OCCO)nc3)cc3ccccc23)CC1` [Example 125, 1-(1-Ethylpiperazin-4-yl)-3-[2-(2-Hydroxyethoxy)Pyridin-5-yl]Isoquinoline], the Ki in assay [1] turned out to be 27.1 nM; in assay [2] it was 6.9 nM.

Consider `CCCC(=O)Nc1ccc(-c2cc3ccccc3c(N3CCN(CC)CC3)n2)cn1` [Example 128, 3-(2-propylcarbonylaminopyridin-5-yl)-1-(4-ethylpiperazin-1-yl)isoquinoline hydrochloride], for which the figures for the Ki in assay [1] and in assay [2] were 22.2 nM and 3 nM, respectively.

`CCN1CCN(c2nc(-c3ccc(S(C)(=O)=O)nc3)cc3ccccc23)CC1` [Example 129, 3-[(2-Methylsulfonylpyridin)-5-yl]-1-(4-Ethylpiperazin-1-yl)Isoquinoline Hydrochloride]: the Ki was determined as 21.6 nM in assay [1] and 18.4 nM in assay [2].

Take `CCN1CCN(c2nc(-c3ccc(S(=O)(=O)CC)nc3)cc3ccccc23)CC1` [Example 130, 3-[(2-Ethylsulfonylpyridin)-5-yl]-1-(4-Ethylpiperazin-1-yl)Isoquinoline Hydrochloride]: the Ki in assay [1] came out at 24.4 nM; in assay [2] it was 17 nM.

`CCCCc1ccc(-c2cc3ccccc3c(N3CCN(CC)CC3)n2)cn1` [Example 131, 1-(1-Ethylpiperazin-4-yl)-3-(2-Butylpyridin-5-yl)Isoquinoline]: the Ki in assay [1] stood at 6.4 nM; in assay [2], 5.8 nM.

On to `CCN1CCN(c2nc(-c3ccc(CCCF)cn3)cc3ccccc23)CC1` [Example 132, 1-(1-Ethylpiperazin-4-yl)-3-[5-(3-Fluoropropyl)Pyridin-2-yl)Isoquinoline], for which the Ki stood at 1.5 nM in assay [1] and 23.4 nM in assay [2].

For `CCN1CCN(c2nc(-c3ccc(CCCF)nc3)cc3ccccc23)CC1` [Example 133, 1-(1-Ethylpiperazin-4-yl)-3-[2-(3-Fluoropropyl)Pyridin-5-yl]Isoquinoline], the Ki in assay [1] turned out to be 2.9 nM; in assay [2], 6.2 nM.

Consider `CCN1CCN(c2nc(-c3ccc(CCCO)cn3)cc3ccccc23)CC1` [Example 134, 1-(1-Ethylpiperazin-4-yl)-3-[5-(3-Hydroxypropyl)Pyridin-2-yl]Isoquinoline], for which the Ki in assay [1] was determined as 4.9 nM; in assay [2], 12.4 nM.

Regarding `CCN1CCN(c2nc(-c3ccc(CCCO)nc3)cc3ccccc23)CC1` [Example 135, 1-(1-Ethylpiperazin-4-yl)-3-[2-(3-Hydroxypropyl)Pyridin-5-yl]Isoquinoline], the Ki in assay [1] was found to be 3.4 nM; in assay [2] it was 18.9 nM.

With `CCN1CCN(c2nc(-c3ccc(CCC(C)O)nc3)cc3ccccc23)CC1` (stereo not shown) [Example 136, 1-(1-Ethylpiperazin-4-yl)-3-[2-(3-Hydroxybutyl)Pyridin-5-yl]Isoquinoline], the Ki in assay [1] worked out at 3.7 nM; in assay [2], 11.6 nM.

As to `CCN1CCN(c2nc(-c3ccc(CCCCO)nc3)cc3ccccc23)CC1` [Example 137, 1-(1-Ethylpiperazin-4-yl)-3-[2-(4-Hydroxybutyl)Pyridin-5-yl]Isoquinoline], the Ki is 7.2 nM in assay [1] and 32.5 nM in assay [2].

On to `CCN1CCN(c2nc(-c3ccc(CCC(C)(C)O)nc3)cc3ccccc23)CC1` [Example 138, 1-(1-Ethylpiperazin-4-yl)-3-[2-(3-Hydroxy-3-Methylbutyl)Pyridin-5-yl]Isoquinoline Oxalate], for which the Ki was 13.5 nM in assay [1] and 5.5 nM in assay [2].

On to `CCN1CCN(c2nc(-c3cncc(CCCOC)c3)cc3ccccc23)CC1` [Example 140, 1-(1-Ethylpiperazin-4-yl)-3-[3-(3-Methoxypropyl)Pyridin-5-yl]Isoquinoline Oxalate], for which the Ki in assay [1] stood at 22.1 nM; in assay [2] it was 36.7 nM.
